Reference: PMC10746543, “Design principles for cyclin K molecular glue degraders” (Nature Chemical Biology, 2023)
Values joined by “and” are separate entries in the source; they are usually repeats but may differ in a detail not shown here. Equal entries are not always repeated. Where two headings read alike, the source gives them in different places.

Key:
[1] = target: T1, CDK9–cyclin T (Homo sapiens, UniProt P50750); test: Lanthascreen kinase binding assay, CDK9; conditions: for Lanthascreen TR-FRET signal (raw ratio), sheet CDK9: first titration set (r1), duplicates
T1 construct: purchased Thermo Fisher
Procedure: (§1) Lanthascreen experiments were performed using commercially available reagents (Thermo Fisher) and according to the manufacturer’s instructions.

[2] = target: T2, CDK12–cyclin K and DDB1 (Homo sapiens, UniProt Q16531+Q9NYV4, K965R); test: TR-FRET ternary complex formation assay (compound titration); format: binding
T2 construct: His6–CDK12 (a.a. 713–1,052); full-length or beta-propeller B domain deletion (ΔBPB: a.a. 396–705 deleted) constructs of His6–DDB1ΔBPB, StrepII–Avi–DDB1, or His6–Spy–DDB1; made in house; host or cells: Trichoplusia ni High Five insect cells (baculovirus)
In short: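 Background fluorescence is reduced by reading 70 μs after excitation, and complex formation is followed as the 520:490 nm fluorescence ratio.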

[3] = target: CDK12–cyclin K (Homo sapiens, UniProt Q9NYV4); test: Lanthascreen kinase binding assay, CDK12; conditions: for Lanthascreen raw signal, sheet CDK12: series r1, duplicates
Procedure: as §1

[4] = system: HEK293T cells; test: Drug sensitivity assay (CellTiter-Glo viability) with or without MLN4924 pretreatment; format: cell-based, human; conditions: for EC50: Homo sapiens, HEK-293T
In short: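 First, cells (HEK293T–Cas9, 0.15 × 10^6 ml^−1) are exposed to DMSO or 100 nM MLN4924. Next, drugs follow at 2 h. Finally, CellTiter-Glo is read at day 3 and normalised to DMSO.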

[5] = system: cyclin K–eGFP degradation reporter; test: Cyclin K reporter stability analysis (dual-color cyclin K–eGFP reporter); format: cell-based, human; conditions: source data sheet correlations; read-out: DC50
In short: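 HEK293T–Cas9 cells carrying the cyclin K–eGFP reporter were seeded at 1 × 10^6 ml^−1 and exposed to drug or DMSO for 5 h. Flow cytometry gave geometric means of eGFP and mCherry in round, mCherry-positive cells. The eGFP/mCherry ratio was normalized to the mean of three DMSO controls.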

[6] = target: T3, CDK2–cyclin A (Homo sapiens, UniProt P24941); test: Lanthascreen kinase binding assay, CDK2; conditions: for Lanthascreen signal, sheet CDK2: raw replicates, experiment r1-r11
T3 construct: purchased Thermo Fisher
Procedure: as §1

T2 sequence (Q9NYV4 713-1052 K965R): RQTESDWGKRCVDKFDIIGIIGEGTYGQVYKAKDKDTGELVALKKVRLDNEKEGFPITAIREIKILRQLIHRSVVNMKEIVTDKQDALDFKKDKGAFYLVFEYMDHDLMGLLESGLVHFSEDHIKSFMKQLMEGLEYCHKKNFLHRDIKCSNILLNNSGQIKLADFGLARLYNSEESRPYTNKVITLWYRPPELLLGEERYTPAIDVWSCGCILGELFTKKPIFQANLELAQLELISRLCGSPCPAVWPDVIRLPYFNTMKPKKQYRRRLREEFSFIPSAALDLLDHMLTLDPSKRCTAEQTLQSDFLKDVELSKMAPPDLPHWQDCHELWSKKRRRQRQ
T2 sequence (O75909 1-267 partner): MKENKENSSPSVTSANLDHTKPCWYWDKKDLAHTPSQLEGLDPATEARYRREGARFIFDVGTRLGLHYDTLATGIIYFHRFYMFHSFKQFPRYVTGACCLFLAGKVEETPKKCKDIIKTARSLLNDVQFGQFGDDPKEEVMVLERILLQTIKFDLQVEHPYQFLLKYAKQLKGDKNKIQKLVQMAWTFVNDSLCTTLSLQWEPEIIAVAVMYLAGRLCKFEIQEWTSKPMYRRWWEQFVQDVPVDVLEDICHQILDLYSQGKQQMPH
T2 sequence (Q16531 whole entry): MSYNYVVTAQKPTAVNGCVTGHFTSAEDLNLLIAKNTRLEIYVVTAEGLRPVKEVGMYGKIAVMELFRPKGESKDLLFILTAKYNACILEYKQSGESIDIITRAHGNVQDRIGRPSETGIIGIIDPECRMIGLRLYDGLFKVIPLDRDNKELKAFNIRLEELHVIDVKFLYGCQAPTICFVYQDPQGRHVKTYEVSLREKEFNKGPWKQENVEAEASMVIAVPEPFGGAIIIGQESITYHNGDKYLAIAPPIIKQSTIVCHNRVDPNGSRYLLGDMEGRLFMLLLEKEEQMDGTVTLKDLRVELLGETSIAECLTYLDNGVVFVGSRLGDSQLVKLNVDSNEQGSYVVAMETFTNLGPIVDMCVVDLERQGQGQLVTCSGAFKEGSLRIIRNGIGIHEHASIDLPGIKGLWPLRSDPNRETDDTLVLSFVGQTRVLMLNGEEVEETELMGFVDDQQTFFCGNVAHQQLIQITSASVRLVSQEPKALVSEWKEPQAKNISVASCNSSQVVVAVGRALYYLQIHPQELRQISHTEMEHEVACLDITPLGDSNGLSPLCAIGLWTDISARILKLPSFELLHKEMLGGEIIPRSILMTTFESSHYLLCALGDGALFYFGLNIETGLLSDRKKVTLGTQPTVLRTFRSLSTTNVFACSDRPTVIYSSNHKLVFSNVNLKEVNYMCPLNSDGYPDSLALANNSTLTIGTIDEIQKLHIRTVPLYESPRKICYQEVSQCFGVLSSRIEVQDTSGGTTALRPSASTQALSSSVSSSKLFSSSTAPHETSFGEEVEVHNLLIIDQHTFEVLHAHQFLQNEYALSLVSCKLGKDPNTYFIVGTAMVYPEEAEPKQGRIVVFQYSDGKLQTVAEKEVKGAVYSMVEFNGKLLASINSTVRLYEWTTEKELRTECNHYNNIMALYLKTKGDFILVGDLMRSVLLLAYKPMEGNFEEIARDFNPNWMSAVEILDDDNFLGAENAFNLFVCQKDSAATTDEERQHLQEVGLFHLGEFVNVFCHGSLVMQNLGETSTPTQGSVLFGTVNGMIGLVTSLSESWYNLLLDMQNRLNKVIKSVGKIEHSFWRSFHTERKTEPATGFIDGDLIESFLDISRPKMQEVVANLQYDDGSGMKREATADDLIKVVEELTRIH
T1 sequence (P50750 whole entry): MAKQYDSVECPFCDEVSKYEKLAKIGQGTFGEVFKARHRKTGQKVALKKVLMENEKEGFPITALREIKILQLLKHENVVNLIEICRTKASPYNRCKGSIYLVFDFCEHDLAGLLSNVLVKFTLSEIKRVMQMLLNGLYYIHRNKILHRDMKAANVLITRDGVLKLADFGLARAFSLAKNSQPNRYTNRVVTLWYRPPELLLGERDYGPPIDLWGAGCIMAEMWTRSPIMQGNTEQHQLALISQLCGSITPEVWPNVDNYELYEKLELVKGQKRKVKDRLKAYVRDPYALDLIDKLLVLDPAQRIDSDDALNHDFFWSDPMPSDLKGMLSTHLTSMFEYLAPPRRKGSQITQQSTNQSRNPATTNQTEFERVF
T1 sequence (O60563 whole entry partner): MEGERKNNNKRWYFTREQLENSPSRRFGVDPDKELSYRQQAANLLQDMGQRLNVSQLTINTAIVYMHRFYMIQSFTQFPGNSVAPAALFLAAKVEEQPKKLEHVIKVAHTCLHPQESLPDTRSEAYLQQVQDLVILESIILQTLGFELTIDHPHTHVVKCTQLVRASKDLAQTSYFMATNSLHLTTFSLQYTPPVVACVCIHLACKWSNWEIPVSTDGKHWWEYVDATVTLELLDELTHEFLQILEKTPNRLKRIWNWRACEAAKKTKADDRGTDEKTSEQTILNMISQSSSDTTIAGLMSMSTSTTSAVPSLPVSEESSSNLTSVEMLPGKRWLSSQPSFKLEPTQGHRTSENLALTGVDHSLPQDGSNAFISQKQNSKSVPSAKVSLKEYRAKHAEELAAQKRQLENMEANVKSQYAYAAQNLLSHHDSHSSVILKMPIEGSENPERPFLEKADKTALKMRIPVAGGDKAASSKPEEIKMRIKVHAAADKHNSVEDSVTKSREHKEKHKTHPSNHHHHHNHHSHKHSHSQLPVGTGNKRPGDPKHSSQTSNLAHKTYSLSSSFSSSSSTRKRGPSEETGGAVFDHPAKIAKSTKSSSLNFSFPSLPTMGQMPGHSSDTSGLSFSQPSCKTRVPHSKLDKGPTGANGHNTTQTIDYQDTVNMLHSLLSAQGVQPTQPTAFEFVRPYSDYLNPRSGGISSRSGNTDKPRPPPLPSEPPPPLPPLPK
Sequence of CDK12–cyclin K (Q9NYV4 713-1052): as the sequence (Q9NYV4 713-1052 K965R) above, with R253K counted along it
Sequence of CDK12–cyclin K (O75909 1-267 partner limits assumed): as the sequence (O75909 1-267 partner) above

SMILES: COc1ccc(C)cc1N1C[C@@H](C(=O)Nc2nc3ccccc3[nH]2)CC1=O [Z11]
- IC50 ([1]; Lanthascreen, average, Extended Data Fig. 8, read-out: CDK9 IC50): > 10000 nM
- IC50 ([1]; Supplementary Table 2, read-out: Lanthascreen IC50 [nM] CDK9): > 10000 nM
- Lanthascreen TR-FRET signal (raw ratio), sheet CDK9 ([1]; compound 1.02544 nM): 0.0144 and 0.01353
- Lanthascreen TR-FRET signal (raw ratio), sheet CDK9 ([1]; compound 3.15521 nM): 0.01322 and 0.01379
- Lanthascreen TR-FRET signal (raw ratio), sheet CDK9 ([1]; compound 9.46563 nM): 0.01482 and 0.01443
- Lanthascreen TR-FRET signal (raw ratio), sheet CDK9 ([1]; compound 31.5521 nM): 0.01456 and 0.01497
- Lanthascreen TR-FRET signal (raw ratio), sheet CDK9 ([1]; compound 99.3891 nM): 0.0144 and 0.01356
- Lanthascreen TR-FRET signal (raw ratio), sheet CDK9 ([1]; compound 315.521 nM): 0.01557 and 0.0126
- Lanthascreen TR-FRET signal (raw ratio), sheet CDK9 ([1]; compound 3155.21 nM): 0.01348 and 0.01509
- Lanthascreen TR-FRET signal (raw ratio), sheet CDK9 ([1]; compound 10002 nM): 0.008815 and 0.01082
- TR-FRET signal ([2]; compound concentration 3.6 nM): 0.4206 and 0.3705
- TR-FRET signal ([2]; compound concentration 4.68 nM): 0.1751 and 0.204
- TR-FRET signal ([2]; compound concentration 15.84 nM): 0.7002 and 0.5772
- TR-FRET signal ([2]; compound concentration 21.6 nM): 0.3896 and 0.4045
- TR-FRET signal ([2]; compound concentration 36 nM): 0.7669 and 0.7566
- TR-FRET signal ([2]; compound concentration 62.6401 nM): 1.529 and 1.274
- TR-FRET signal ([2]; compound concentration 79.2001 nM): 1.336 and 1.393
- TR-FRET signal ([2]; compound concentration 158.4 nM): 1.979 and 2.065
- TR-FRET signal ([2]; compound concentration 244.8 nM): 3.0134 and 2.769
- TR-FRET signal ([2]; compound concentration 309.6 nM): 2.635 and 2.78
- TR-FRET signal ([2]; compound concentration 626.401 nM): 3.319 and 3.352
- TR-FRET signal ([2]; compound concentration 993.601 nM): 3.805 and 3.416
- TR-FRET signal ([2]; compound concentration 1252.8 nM): 3.754 and 3.678
- TR-FRET signal ([2]; compound concentration 2001.6 nM): 4.058 and 3.866
- TR-FRET signal ([2]; compound concentration 2448 nM): 3.936 and 3.906
- TR-FRET signal ([2]; compound concentration 9936.01 nM): 4.2719 and 4.125
- TR-FRET signal ([2]; compound concentration 20016 nM): 4.262 and 4.289
- EC50 ([2]; in vitro complex formation, 50 nM CDK12–cyclin K, 100 nM DDB1, text and figures, read-out: TR-FRET EC50): 0.178 ± 0.014 µM
- EC50 ([2]; sheet MOESM7, read-out: log TR-FRET EC50 (converted)): 0.178 µM
- EC50 ([2]; source data sheet correlations, read-out: TR-FRET EC50): 0.178 µM
- IC50 ([3]; Supplementary Table 2, read-out: Lanthascreen IC50 [nM] CDK12): 3220 nM
- Lanthascreen raw signal, sheet CDK12 ([3]; compound 1.02544 nM): 0.009169 and 0.008974
- Lanthascreen raw signal, sheet CDK12 ([3]; compound 3.15521 nM): 0.009884 and 0.009801
- Lanthascreen raw signal, sheet CDK12 ([3]; compound 9.46563 nM): 0.008091 and 0.0101
- Lanthascreen raw signal, sheet CDK12 ([3]; compound 31.5521 nM): 0.00922 and 0.009965
- Lanthascreen raw signal, sheet CDK12 ([3]; compound 99.3891 nM): 0.01122 and 0.009922
- Lanthascreen raw signal, sheet CDK12 ([3]; compound 315.521 nM): 0.009639 and 0.01064
- Lanthascreen raw signal, sheet CDK12 ([3]; compound 3155.21 nM): 0.00898 and 0.008785
- Lanthascreen raw signal, sheet CDK12 ([3]; compound 10002 nM): 0.007994 and 0.007932
- EC50 ([4]; Supplementary Fig. 5, HEK293T, CellTiter Glo, 72h, pre-treatment with 100 nM MLN4924, read-out: Viability EC50, with MLN4924): 1290 µM
- EC50 ([4]; Supplementary Table 2, HEK293T viability, 72 h, compound alone, read-out: Cellular assays EC50): 1.07 µM
- Toxicity rescue ([4]; Supplementary Table 2, MLN4924-mediated cytotoxicity rescue, 10 µM used where n.d.): 838%
- DC50 [5]: 0.436 µM
- Lanthascreen signal, sheet CDK2 ([6]; Compound 1.02544 nM): 0.007579 and 0.009377
- Lanthascreen signal, sheet CDK2 ([6]; Compound 3.15521 nM): 0.00995 and 0.009356
- Lanthascreen signal, sheet CDK2 ([6]; Compound 9.46563 nM): 0.01093 and 0.01062
- Lanthascreen signal, sheet CDK2 ([6]; Compound 31.5521 nM): 0.01004 and 0.01088
- Lanthascreen signal, sheet CDK2 ([6]; Compound 99.3891 nM): 0.009456 and 0.01029
- Lanthascreen signal, sheet CDK2 ([6]; Compound 315.521 nM): 0.0104 and 0.01024
- Lanthascreen signal, sheet CDK2 ([6]; Compound 3155.21 nM): 0.01031 and 0.01162
- Lanthascreen signal, sheet CDK2 ([6]; Compound 10002 nM): 0.01102 and 0.01013
- IC50 ([6]; Lanthascreen, average, Extended Data Fig. 8, read-out: CDK2 IC50): > 10000 nM
- IC50 ([6]; Supplementary Table 2, read-out: Lanthascreen IC50 [nM] CDK2): > 10000 nM
